Measured values: patent US12728124B2, “Medical use of cystic fibrosis transmembrane conductance regulator (CFTR) modulators” (priority 2020, dated 2026)

Legend:
[1] = test system: human pulmonary microvascular endothelial cells (HPMECs); assay type: cell-based; settings: pretreated 24 hours with 10 μmol/L Ivacaftor or 5 μmol/L Lumacaftor, then 0.25 μg/ml pneumolysin; vs pneumolysin alone
[2] = test system: human pulmonary microvascular endothelial cells (HPMECs); experiment: Endothelial calcium concentration (fura-2 340/380 ratio) in HPMECs stimulated with pneumolysin; assay type: cell-based; settings: 10 μmol/L Ivacaftor for 30 min, then PLY 0.25 μg/ml for 30 min
Method: Permeability of endothelial cells has been additionally assessed by measuring the endothelial calcium concentration as follows: Increases in the endothelial calcium concentration represent a key mechanism that underlies the increase endothelial cell permeability. Increased endothelial calcium leads to contraction of the cells and increase gap formation between endothelial cells that lead to increased permeability. In this measurement, HPMECs were cultured in channel slides to confluence. The confluent cells were incubated for 30 min with Hanks Balanced Salt Solution containing 5% fetal bovine serum (FBS) and 10 μmol/L of the calcium sensitive dye fura-2-acetoxymethyl ester (fura-2AM) dissolved in Pluronic F-127 (20% solution in DMSO). The cells were then mounted in a heated chamber at 37° C. and perfused with Hank's salt solution containing 5% FBS with 10 μmol/L Ivacaftor (Cayman chemical) for 30 min followed by PLY (0.25 μg/ml) stimulation for 30 min. Fura-2 fluorescence was excited by monochromatic illumination at wavelength 340 and 380 nm. After background correction, the 340/380 ratio was calculated using TillVision 4.0 software (Till Photonics Germany) as a measure of endothelial calcium concentration. As positive or negative controls, cells were stimulated with only pneumolysin or non-treated cells were used, respectively.

CFTR [3] = molecular target: T1, CFTR (Homo sapiens, UniProt P13569); experiment: CFTR expression by Western blotting in HPMECs stimulated with pneumolysin; assay type: cell-based; settings: pretreated 10 μmol/L Ivacaftor 24 hours, then 0.25 μg/ml PLY for 18 h; Western blot
T1 sequence (P13569 whole entry, looked up): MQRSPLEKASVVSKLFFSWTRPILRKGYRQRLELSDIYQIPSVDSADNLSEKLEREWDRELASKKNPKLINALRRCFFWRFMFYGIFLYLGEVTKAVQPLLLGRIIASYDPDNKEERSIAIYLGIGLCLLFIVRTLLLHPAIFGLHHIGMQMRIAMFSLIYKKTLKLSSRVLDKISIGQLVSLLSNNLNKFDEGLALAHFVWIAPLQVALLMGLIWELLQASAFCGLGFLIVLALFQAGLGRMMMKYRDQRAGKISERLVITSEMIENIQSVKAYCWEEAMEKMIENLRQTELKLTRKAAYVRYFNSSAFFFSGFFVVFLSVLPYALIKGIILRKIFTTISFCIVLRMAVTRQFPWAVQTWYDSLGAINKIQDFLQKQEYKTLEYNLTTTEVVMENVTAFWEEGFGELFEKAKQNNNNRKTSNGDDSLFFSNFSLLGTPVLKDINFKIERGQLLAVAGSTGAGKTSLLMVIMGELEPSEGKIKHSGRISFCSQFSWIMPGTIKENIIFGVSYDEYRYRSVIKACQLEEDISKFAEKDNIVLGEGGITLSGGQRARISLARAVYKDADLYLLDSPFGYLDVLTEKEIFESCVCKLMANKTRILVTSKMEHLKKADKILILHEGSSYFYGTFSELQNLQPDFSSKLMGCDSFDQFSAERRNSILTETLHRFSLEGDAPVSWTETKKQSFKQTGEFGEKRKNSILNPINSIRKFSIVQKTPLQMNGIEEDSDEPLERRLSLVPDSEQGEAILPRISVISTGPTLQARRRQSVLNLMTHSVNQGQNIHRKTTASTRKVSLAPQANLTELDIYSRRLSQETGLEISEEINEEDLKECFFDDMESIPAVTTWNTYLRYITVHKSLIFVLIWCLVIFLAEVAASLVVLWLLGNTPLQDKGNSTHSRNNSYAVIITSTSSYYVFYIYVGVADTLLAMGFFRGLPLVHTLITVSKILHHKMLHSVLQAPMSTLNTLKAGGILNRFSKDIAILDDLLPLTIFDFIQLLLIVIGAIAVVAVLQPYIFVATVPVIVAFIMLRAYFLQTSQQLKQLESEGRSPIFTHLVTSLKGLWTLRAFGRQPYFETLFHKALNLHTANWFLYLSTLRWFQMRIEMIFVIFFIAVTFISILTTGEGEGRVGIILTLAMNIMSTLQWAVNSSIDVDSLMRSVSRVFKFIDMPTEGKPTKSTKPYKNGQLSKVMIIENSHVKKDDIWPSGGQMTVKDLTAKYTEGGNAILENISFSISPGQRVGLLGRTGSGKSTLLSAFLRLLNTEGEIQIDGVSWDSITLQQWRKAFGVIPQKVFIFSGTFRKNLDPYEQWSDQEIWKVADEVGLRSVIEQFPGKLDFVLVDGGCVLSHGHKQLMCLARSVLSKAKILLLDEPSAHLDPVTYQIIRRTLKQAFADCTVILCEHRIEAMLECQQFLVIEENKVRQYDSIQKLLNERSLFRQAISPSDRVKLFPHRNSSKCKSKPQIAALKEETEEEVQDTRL
Method: CFTR expression in endothelial cells was assessed by Western blotting. HPMECs were grown in 6 well plates to confluence. The confluent cells were pretreated with 10 μmol/L Ivacaftor (Cayman chemical) for 24 hours and the next day were stimulated with 0.25 μg/ml PLY for 18 h. Cells were lysed in RIPA buffer and protein concentration was measured by BCA assay and samples were stored at −80° C. or immediately analysed by western blot. Western blots were performed using 7.5% gel. After gel transfer, the blot membrane was incubated for 1 h in 5% milk diluted in tris buffer saline with tween 0.1% (TBS-T) followed by incubation for 24 h with CFTR antibody as the primary antibody diluted 1:500 in TBS-T. The next day, the membrane was incubated for 2 h in donkey anti rabbit as the secondary antibody diluted 1:10000 in TBS-T.

[4] = test system: S. pneumoniae infected mice; experiment: S. pneumoniae infected mice, Ivacaftor pre-treatment: lung protein leakage, survival, BALF immune cells; assay type: in vivo, mouse
CFTR [5] = molecular target: T2, CFTR (Mus musculus, UniProt P26361); experiment: CFTR expression by Western blotting in lungs of S. pneumoniae infected mice; assay type: in vivo; settings: Ivacaftor 2 mg/kg i.p. pre-treatment; Western blot
T2 construct: Ivacaftor pre-treatment stabilized the expression of CFTR in lungs of mice infected with S. pneumoniae; from tissue; host or cells: mouse lung tissue (mice from Charles River, Germany)
T2 sequence (P26361 whole entry): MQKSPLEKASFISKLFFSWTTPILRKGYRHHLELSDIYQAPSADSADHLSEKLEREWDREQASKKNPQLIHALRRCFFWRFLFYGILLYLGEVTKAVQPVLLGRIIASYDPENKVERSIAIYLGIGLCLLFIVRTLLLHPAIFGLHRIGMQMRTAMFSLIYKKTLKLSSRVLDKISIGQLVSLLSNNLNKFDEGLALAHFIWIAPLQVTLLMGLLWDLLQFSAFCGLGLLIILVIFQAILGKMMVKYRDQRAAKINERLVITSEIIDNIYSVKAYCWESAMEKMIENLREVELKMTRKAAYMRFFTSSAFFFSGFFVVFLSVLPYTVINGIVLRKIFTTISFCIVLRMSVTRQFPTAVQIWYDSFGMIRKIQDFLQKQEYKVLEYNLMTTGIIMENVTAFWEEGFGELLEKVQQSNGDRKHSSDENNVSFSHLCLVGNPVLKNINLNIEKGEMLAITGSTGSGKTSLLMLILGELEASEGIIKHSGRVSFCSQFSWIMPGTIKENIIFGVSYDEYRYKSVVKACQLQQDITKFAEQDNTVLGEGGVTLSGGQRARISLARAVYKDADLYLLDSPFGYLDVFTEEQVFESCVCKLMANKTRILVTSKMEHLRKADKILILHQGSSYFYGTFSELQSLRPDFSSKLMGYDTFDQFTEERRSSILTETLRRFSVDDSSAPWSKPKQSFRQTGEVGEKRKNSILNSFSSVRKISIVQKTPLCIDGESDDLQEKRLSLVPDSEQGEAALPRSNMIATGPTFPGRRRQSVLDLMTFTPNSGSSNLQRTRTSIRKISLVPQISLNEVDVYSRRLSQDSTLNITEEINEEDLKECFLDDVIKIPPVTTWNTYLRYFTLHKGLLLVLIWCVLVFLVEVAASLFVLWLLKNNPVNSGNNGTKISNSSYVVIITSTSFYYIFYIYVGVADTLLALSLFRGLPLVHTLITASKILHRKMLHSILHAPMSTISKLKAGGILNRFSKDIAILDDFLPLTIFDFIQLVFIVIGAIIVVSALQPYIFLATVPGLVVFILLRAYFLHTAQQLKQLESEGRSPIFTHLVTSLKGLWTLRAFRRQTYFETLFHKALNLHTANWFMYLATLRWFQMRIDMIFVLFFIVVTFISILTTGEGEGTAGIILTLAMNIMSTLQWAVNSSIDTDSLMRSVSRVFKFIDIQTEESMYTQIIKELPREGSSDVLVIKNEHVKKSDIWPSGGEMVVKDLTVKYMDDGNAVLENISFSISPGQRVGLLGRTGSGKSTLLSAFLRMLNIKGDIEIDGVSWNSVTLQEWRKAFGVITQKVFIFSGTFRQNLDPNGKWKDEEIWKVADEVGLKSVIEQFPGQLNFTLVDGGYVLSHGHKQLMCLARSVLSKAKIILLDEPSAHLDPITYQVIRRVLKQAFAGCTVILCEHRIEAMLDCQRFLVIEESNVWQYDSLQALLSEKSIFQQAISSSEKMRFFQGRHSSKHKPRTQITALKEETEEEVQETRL

[6] = test system: S. pneumoniae infected mice; experiment: S. pneumoniae infected mice, Ivacaftor post-treatment: lung protein leakage; assay type: in vivo, mouse; settings: Ivacaftor 2 mg/kg i.p. post-treatment from 6 hours post-infection
[7] = test system: human pulmonary microvascular endothelial cells (HPMECs); experiment: Transendothelial electrical resistance (ECIS) of HPMECs stimulated with plasma from patients with severe COVID-19; assay type: cell-based; settings: pretreated 24 hours with 10 μmol/L Ivacaftor or 5 μmol/L Lumacaftor, then 10% (v/v) severe COVID-19 plasma for 24 h
CFTR [8] = molecular target: T1, CFTR; experiment: CFTR expression by Western blotting in HPMECs stimulated with plasma from patients with severe COVID-19; assay type: cell-based; settings: pretreated 10 μmol/L Ivacaftor 24 hours, then 20% (v/v) severe COVID-19 plasma for 24 h; Western blot, densitometry
Method: CFTR expression in endothelial cells was assessed by Western blotting. HPMECs were grown in 6 well plates to confluence. The confluent cells were pretreated with 10 μmol/L Ivacaftor (Cayman chemical) for 24 hours and the next day were stimulated with the above described plasma from COVID-19 patients or healthy donors for 24 h. As positive control, cells were stimulated with the plasma from COVID-19 patients alone (in the absence of CFTR modulators). Plasma samples were diluted to 20% (v/v) for CFTR immunoblotting.
Cells were lysed in RIPA buffer and protein concentration was measured by BCA assay and samples were stored at −80° C. or immediately analysed by Western blot. Western blots were performed using 7.5% gel. After gel transfer, the blot membrane was incubated for 1 h in 5% milk diluted in tris buffer saline with tween 0.1% (TBS-T) followed by incubation for 24 h with CFTR antibody as the primary antibody diluted 1:500 in TBS-T. The next day, the membrane was incubated for 2 h in donkey anti rabbit as the secondary antibody diluted 1:10000 in TBS-T.

[9] = Ivacaftor 2 mg/kg i.p. pre-treatment, S. pneumoniae infected mice, 48 h p.i., FACS

Row | Compound | transendothelial electrical resistance of HPMEC monolayer after pneumolysin stimulation [1] | endothelial calcium concentration ([Ca2+]i) after pneumolysin stimulation [2] | CFTR expression in HPMECs after pneumolysin stimulation (CFTR [3]) | survival rate in S. pneumoniae infected mice ([4]; Ivacaftor 2 mg/kg i.p. pre-treatment) | endogenous mouse serum albumin BALF/plasma ratio (protein leakage into the lung) ([4]; Ivacaftor 2 mg/kg i.p. pre-treatment from 24 h before infection, 48 h post infection with S. pneumoniae) | exogenous human serum albumin (HSA) BALF/plasma ratio (protein leakage into the lung) ([4]; Ivacaftor 2 mg/kg i.p. pre-treatment from 24 h before infection, HSA i.v. 1 h before BAL, 48 h post infection) | inflammatory macrophages in BALF [4, 9] | leukocytes in BALF [4, 9] | polymorphonuclear leukocytes (PMN) in BALF [4, 9] | CFTR expression in lungs of S. pneumoniae infected mice (CFTR [5]) | endogenous mouse serum albumin BALF/plasma ratio (protein leakage into the lung) ([6]; 48 h post infection with S. pneumoniae) | exogenous human serum albumin (HSA) BALF/plasma ratio (protein leakage into the lung) ([6]; HSA i.v. 1 h before BAL, 48 h post infection) | transendothelial electrical resistance of HPMECs after stimulation with plasma from COVID-19 patients [7] | CFTR expression in HPMECs after stimulation with plasma from COVID-19 patients (CFTR [8])
1 | CC(C)(C)c1cc(C(C)(C)C)c(NC(=O)c2c[nH]c3ccccc3c2=O)cc1O [Ivacaftor, N-(5-hydroxy-2,4-ditert-butyl-phenyl)-4-oxo-1H-quinoline-3-carboxamide] | less reduced resistance | lesser increase | CFTR expression comparable to control cells | increased survival rate | reduced protein leakage into the lung | reduced protein leakage into the lung | decreased the levels of all three inflammatory cell subsets in the BALF | decreased the levels of all three inflammatory cell subsets in the BALF | decreased the levels of all three inflammatory cell subsets in the BALF | stabilized expression of CFTR | reduced protein leakage into the lung | reduced protein leakage into the lung | less reduced transendothelial electrical resistance | CFTR expression comparable to control cells
2 | Cc1ccc(NC(=O)C2(c3ccc4c(c3)OC(F)(F)O4)CC2)nc1-c1cccc(C(=O)O)c1 [Lumacaftor, 3-[6-({[1-(2,2-difluoro-1,3-benzodioxol-5-yl)cyclopropyl]carbonyl}amino)-3-methylpyridin-2-yl]benzoic acid] | less reduced resistance | – | – | – | – | – | – | – | – | – | – | – | less reduced transendothelial electrical resistance | –
